Test system: modified procaine-binding aptamer (new sequence) (DNA, aptamer) AGACAAGGAAAATCCTTCAACGAAGTGGGTCG
Experiment: square-wave voltammetry, EAB sensor titration
Conditions: undiluted bovine CSF, 37 °C, immobilised aptamer; for binding: highest concentration not given

Row | binding | Kd (Langmuir-Hill fit, ± is 95% confidence) [µM] | SMILES
1 | no | – | CCN(CC)CCO
2 | – | 960 ± 30 | CCN(CC)CCOC(=O)c1ccc(N)cc1
3 | no | – | Nc1ccc(C(=O)O)cc1
